Test results from ChEMBL document CHEMBL1158060, “Taspine: bioactivity-guided isolation and molecular ligand-target insight of a potent acetylcholinesterase inhibitor from Magnolia x soulangiana” (J Nat Prod, 2006).

Tests used:
[1] = target: Acetylcholinesterase (Homo sapiens, UniProt P22303)
Description: Inhibition of human AChE by Ellman's assay

[2] = target: Acetylcholinesterase (Electrophorus electricus, UniProt O42275)
[3] = target: Cholinesterase (Equus caballus, UniProt P81908)
Sequence of Cholinesterase (P81908 whole entry): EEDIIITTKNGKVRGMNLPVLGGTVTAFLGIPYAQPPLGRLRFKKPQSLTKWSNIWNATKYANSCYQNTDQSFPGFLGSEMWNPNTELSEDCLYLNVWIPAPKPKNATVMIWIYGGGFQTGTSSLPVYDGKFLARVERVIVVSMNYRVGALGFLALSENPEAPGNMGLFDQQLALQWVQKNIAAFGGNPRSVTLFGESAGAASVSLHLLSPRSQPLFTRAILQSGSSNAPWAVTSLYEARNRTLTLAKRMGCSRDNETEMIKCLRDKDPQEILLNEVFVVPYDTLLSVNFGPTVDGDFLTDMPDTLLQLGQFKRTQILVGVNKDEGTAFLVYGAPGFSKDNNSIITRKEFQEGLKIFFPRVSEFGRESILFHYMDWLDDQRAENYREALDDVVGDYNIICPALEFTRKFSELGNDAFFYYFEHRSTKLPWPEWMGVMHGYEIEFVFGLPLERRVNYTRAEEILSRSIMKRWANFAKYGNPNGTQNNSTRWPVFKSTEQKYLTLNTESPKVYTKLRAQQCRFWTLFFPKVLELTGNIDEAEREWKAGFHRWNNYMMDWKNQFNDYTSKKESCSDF
Description: Inhibition of horse serum BuChE by Ellman's method

Sequence of Acetylcholinesterase (Homo sapiens, UniProt P22303) (P22303 whole entry): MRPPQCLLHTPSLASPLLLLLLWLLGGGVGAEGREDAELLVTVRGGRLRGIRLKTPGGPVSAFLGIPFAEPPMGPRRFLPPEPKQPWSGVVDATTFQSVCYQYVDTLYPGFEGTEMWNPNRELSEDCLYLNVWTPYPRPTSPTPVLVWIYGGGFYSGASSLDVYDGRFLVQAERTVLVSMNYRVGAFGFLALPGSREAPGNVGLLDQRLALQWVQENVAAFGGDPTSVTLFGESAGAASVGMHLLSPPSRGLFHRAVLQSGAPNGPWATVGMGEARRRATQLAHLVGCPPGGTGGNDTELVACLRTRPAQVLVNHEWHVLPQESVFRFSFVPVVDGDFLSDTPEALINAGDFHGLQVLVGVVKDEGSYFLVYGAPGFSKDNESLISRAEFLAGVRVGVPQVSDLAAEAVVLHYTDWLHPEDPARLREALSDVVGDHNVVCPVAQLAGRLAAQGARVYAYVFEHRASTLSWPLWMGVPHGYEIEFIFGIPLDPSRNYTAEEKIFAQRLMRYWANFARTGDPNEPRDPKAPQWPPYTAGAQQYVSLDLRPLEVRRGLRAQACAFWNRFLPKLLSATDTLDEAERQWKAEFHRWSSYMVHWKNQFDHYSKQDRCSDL
Sequence of Acetylcholinesterase (Electrophorus electricus, UniProt O42275) (O42275 whole entry): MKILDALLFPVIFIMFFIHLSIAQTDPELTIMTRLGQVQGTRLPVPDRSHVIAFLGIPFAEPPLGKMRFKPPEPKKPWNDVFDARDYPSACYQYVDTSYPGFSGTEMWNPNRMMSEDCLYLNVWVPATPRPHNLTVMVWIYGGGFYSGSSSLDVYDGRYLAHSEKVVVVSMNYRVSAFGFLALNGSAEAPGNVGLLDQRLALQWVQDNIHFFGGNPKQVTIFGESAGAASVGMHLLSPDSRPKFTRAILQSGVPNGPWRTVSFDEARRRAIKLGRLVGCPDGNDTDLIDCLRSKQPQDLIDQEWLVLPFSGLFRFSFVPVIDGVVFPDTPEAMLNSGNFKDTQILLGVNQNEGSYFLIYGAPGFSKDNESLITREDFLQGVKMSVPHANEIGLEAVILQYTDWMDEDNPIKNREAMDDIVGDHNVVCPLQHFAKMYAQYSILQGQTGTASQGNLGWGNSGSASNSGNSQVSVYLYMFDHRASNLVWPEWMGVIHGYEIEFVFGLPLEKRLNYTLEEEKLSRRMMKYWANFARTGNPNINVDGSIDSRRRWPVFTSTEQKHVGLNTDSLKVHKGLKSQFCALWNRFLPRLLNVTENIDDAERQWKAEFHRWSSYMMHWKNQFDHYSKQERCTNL

COc1c(O)cc2c3c1-c1ccccc1C[C@H]3NCC2 [(-)-ASIMILOBINE]
IC50 [1]: > 100 µM
IC50 [2]: > 100 µM
IC50 [3]: > 100 µM

COc1ccc2c(=O)oc3c(OC)cc(CCN(C)C)c4c(=O)oc1c2c34 [TASPINE]
IC50 [1]: 0.54 µM
IC50 [2]: 0.33 µM
IC50 [3]: > 100 µM
